From patent US20180250232A1, “PROCESS FOR PREPARING SPRAY DRIED SOLID DISPERSIONS OF (S)-N-(3-(6-ISOPROPOXYPYRIDIN-3-YL)-1H-INDAZOL-5-YL)-1-(2-(4-(4-(1-METHYL-1H-1,2,4-TRIAZOL-3-YL)PHENYL)-3,6-DIHYDROPYRIDIN-1(2H)-YL)-2-OXOETHYL)-3-(METHYLTHIO)PYRROLIDINE-3-CARBOXAMIDE FOR PHARMACEUTICAL PREPARATIONS” (Merck Sharp & Dohme Corp., priority 2015, published 2018) come the findings set out here.

The nature of the data set: polymorph studies / competition slurry experiments. The class given is physicochemical. How it is done: Preliminary polymorph screening for (S)—N-(3-(6-isopropoxypyridin-3-yl)-1H-indazol-5-yl)-1-(2-(4-(4-(1-methyl-1H-1,2,4-triazol-3-yl)phenyl)-3,6-dihydropyridin-1(2H)-yl)-2-oxoethyl)-3-(methylthio)pyrrolidine-3-carboxamide were conducted by solvent-mediated slurry experiments in 10 different solvents or solvent mixtures using the amorphous compound as the starting material.

Take `CS[C@@]1(C(=O)Nc2ccc3[nH]nc(-c4ccc(OC(C)C)nc4)c3c2)CCN(CC(=O)N2CC=C(c3ccc(-c4ncn(C)n4)cc3)CC2)C1` [hydrate form 2, (S)—N-(3-(6-isopropoxypyridin-3-yl)-1H-indazol-5-yl)-1-(2-(4-(4-(1-methyl-1H-1,2,4-triazol-3-yl)phenyl)-3,6-dihydropyridin-1(2H)-yl)-2-oxoethyl)-3-(methylthio)pyrrolidine-3-carboxamide crystalline free base hydrate form 2]: the “more stable form in competition slurry experiments” value (hydrate form 1 and 2 as seeds in H2O/methanol mixture (H2O activity of 0.5), room temperature and 4° C.) was “more stable form in both experiments”. For the same compound, the “stability of crystalline form (polymorph studies)” value (room temperature) was “most stable crystalline form at room temperature”.
